Data from patent US4029805A, “Semisynthetic penicillins” (Hoffmann-La Roche Inc., priority 1976, dated 1977).
Read-outs that look alike come from different tables or passages of the source.

Experiments:
S. pyogenes = assay: Curative dose against systemic S. pyogenes infection; type: in vivo, mice; conditions: Streptococcus pyogenes, in Mus musculus, read-out: CD50 (the source's name)
S. typhosa [1] = assay: Curative dose against systemic S. typhosa infection; type: in vivo, mice; conditions: Mus musculus, sc, read-out: CD50 (the source's name)
D. pneumoniae = assay: Curative dose against systemic D. pneumoniae infection; type: in vivo, mice; conditions: Streptococcus pneumoniae, in Mus musculus, read-out: CD50 (the source's name)
K. pneumoniae = assay: Curative dose against systemic K. pneumoniae infection; type: in vivo, mice; conditions: Klebsiella pneumoniae, in Mus musculus, read-out: CD50 (the source's name)
S. typhosa [2] = assay: Curative dose against systemic S. typhosa infection; type: in vivo, mice; conditions: Mus musculus, po
Experimental: (§1) In order to illustrate the relative activity of the compounds of this invention as compared to amoxicillin, the compounds, represented by the acetaldehyde derivative, were tested orally against systemic bacterial infections of mice with the following results. The CD50 is the curative dose in 50% of the animals treated against a challenge organism.

E. coli [3] = assay: Curative dose against systemic E. coli infection; type: in vivo, mice; conditions: Escherichia coli, in Mus musculus, po
Experimental: as §1

B. subtilis = assay: Stability in aqueous solution at room temperature, microbiological assay using B. subtilis; conditions: in words
Experimental: To illustrate the relative stability of the compounds of this invention in aqueous solution at room temperature the sodium salts of the compounds were tested as 20% by weight aqueous solutions for activity by microbiological assay using B. subtilis as the test organism and compared to 10% and 20% aqueous solutions of amoxicillin sodium salt and 10% aqueous solution of the acetone derivative of amoxicillin.

S. schottmuelleri = assay: Curative dose against systemic S. schottmuelleri infection; type: in vivo, mice; conditions: Mus musculus
E. coli [4] = assay: Curative dose against systemic E. coli infection; type: in vivo, mice; conditions: Escherichia coli, in Mus musculus, read-out: CD50 (the source's name)
S. aureus = assay: Curative dose against systemic S. aureus infection; type: in vivo, mice; conditions: Staphylococcus aureus, in Mus musculus, read-out: CD50 (the source's name)
[5] = po, Table 3(b), po, acetaldehyde derivative comparison
[6] = po, benzaldehyde derivative comparison
[7] = po, butyraldehyde derivative comparison
[8] = po, hexaldehyde derivative comparison
[9] = po, propionaldehyde derivative comparison
[10] = sc, Table 3(b), sc, acetaldehyde derivative comparison
[11] = sc, benzaldehyde derivative comparison
[12] = sc, butyraldehyde derivative comparison
[13] = sc, hexaldehyde derivative comparison
[14] = sc, propionaldehyde derivative comparison
[15] = Table 3(b), acetaldehyde derivative comparison, read-out: CD50 (the source's name)
[16] = read-out: CD50, Table 2, PO, mice

Question: With `CC1(C)S[C@@H]2[C@H](NC(=O)[C@H](N)c3ccc(O)cc3)C(=O)N2[C@H]1C(=O)O` [Amoxicillin, 6[(-)-alpha-amino-para-hydroxyphenylacetamido]-penicillanic acid] as the compound, how does the ED50 (S. pyogenes; po, Table 2, PO, mice) read?
Answer: Its ED50 is 1.5 mg/kg.

Question: What about the ED50 (S. pyogenes; [5]) of the same compound?
Answer: The ED50 was 1.5 mg/kg.

Question: What about the ED50 (S. pyogenes; [6]) of the same compound?
Answer: Its ED50 is 0.82 mg/kg.

Question: What about the ED50 (S. pyogenes; [7]) of the same compound?
Answer: The ED50 was 0.08 mg/kg.

Question: And the ED50 (S. pyogenes; [8])?
Answer: Its ED50 is 0.3 mg/kg.

Question: What about the ED50 (S. pyogenes; [9]) of the same compound?
Answer: Its ED50 is 0.16 mg/kg.

Question: And the ED50 (S. pyogenes; [10])?
Answer: The ED50 was < 0.05 mg/kg.

Question: What about the ED50 (S. pyogenes; [11]) of the same compound?
Answer: The ED50 was 0.31 mg/kg.

Question: And the ED50 (S. pyogenes; [12])?
Answer: The ED50 was < 0.01 mg/kg.

Question: And the ED50 (S. pyogenes; [13])?
Answer: The ED50 was 0.11 mg/kg.

Question: What about the ED50 (S. pyogenes; [14]) of the same compound?
Answer: The ED50 was 0.07 mg/kg.

Question: And the ED50 (S. typhosa [1]; Table 3(b), acetaldehyde derivative comparison)?
Answer: The ED50 was 6.3 mg/kg.

Question: What about the ED50 (S. typhosa [1]; benzaldehyde derivative comparison) of the same compound?
Answer: The ED50 was 0.56 mg/kg.

Question: And the ED50 (S. typhosa [1]; butyraldehyde derivative comparison)?
Answer: The ED50 was 1.3 mg/kg.

Question: And the ED50 (S. typhosa [1]; hexaldehyde derivative comparison)?
Answer: Its ED50 is 3.3 mg/kg.

Question: And the ED50 (S. typhosa [1]; propionaldehyde derivative comparison)?
Answer: The ED50 was 2.8 mg/kg.

Question: What about the LD50 (in vivo; ip) of the same compound?
Answer: The LD50 was 3460 mg/kg.

Question: And the LD50 (in vivo; po)?
Answer: Its LD50 is > 10000 mg/kg.

Question: And the LD50 (in vivo; sc)?
Answer: The LD50 was 10000 mg/kg.

Question: And the ED50 (D. pneumoniae; po, Table 2, PO, mice)?
Answer: The ED50 was 10 mg/kg.

Question: And the ED50 (D. pneumoniae; [5])?
Answer: The ED50 was 10 mg/kg.

Question: What about the ED50 (D. pneumoniae; [6]) of the same compound?
Answer: Its ED50 is < 0.2 mg/kg.

Question: What about the ED50 (D. pneumoniae; [7]) of the same compound?
Answer: The ED50 was 2.7 mg/kg.

Question: What about the ED50 (D. pneumoniae; [8]) of the same compound?
Answer: Its ED50 is 0.75 mg/kg.

Question: And the ED50 (D. pneumoniae; [9])?
Answer: Its ED50 is 1.1 mg/kg.

Question: And the ED50 (D. pneumoniae; [10])?
Answer: Its ED50 is 0.53 mg/kg.

Question: And the ED50 (D. pneumoniae; [11])?
Answer: Its ED50 is 0.14 mg/kg.

Question: And the ED50 (D. pneumoniae; [12])?
Answer: Its ED50 is 3.2 mg/kg.

Question: And the ED50 (D. pneumoniae; [13])?
Answer: The ED50 was 0.07 mg/kg.

Question: What about the ED50 (D. pneumoniae; [14]) of the same compound?
Answer: The ED50 was 0.19 mg/kg.

Question: What about the ED50 (K. pneumoniae; po, Table 2, PO, mice) of the same compound?
Answer: Its ED50 is 10 mg/kg.

Question: And the ED50 (K. pneumoniae; [5])?
Answer: Its ED50 is 10 mg/kg.

Question: What about the ED50 (K. pneumoniae; [6]) of the same compound?
Answer: Its ED50 is 75 mg/kg.

Question: What about the ED50 (K. pneumoniae; [7]) of the same compound?
Answer: Its ED50 is 58 mg/kg.

Question: And the ED50 (K. pneumoniae; [8])?
Answer: Its ED50 is 59 mg/kg.

Question: And the ED50 (K. pneumoniae; [9])?
Answer: Its ED50 is 16 mg/kg.

Question: What about the ED50 (K. pneumoniae; [10]) of the same compound?
Answer: Its ED50 is 12 mg/kg.

Question: And the ED50 (K. pneumoniae; [11])?
Answer: The ED50 was 100 mg/kg.

Question: And the ED50 (K. pneumoniae; [12])?
Answer: Its ED50 is 22 mg/kg.

Question: And the ED50 (K. pneumoniae; [13])?
Answer: The ED50 was 48 mg/kg.

Question: And the ED50 (K. pneumoniae; [14])?
Answer: The ED50 was 17 mg/kg.

Question: And the ED50 (S. typhosa [2]; [15])?
Answer: The ED50 was 5 mg/kg.

Question: What about the ED50 (S. typhosa [2]; benzaldehyde derivative comparison, read-out: CD50 (the source's name)) of the same compound?
Answer: The ED50 was 1.3 mg/kg.

Question: What about the ED50 (S. typhosa [2]; butyraldehyde derivative comparison, read-out: CD50 (the source's name)) of the same compound?
Answer: Its ED50 is 3.3 mg/kg.

Question: And the ED50 (S. typhosa [2]; hexaldehyde derivative comparison, read-out: CD50 (the source's name))?
Answer: The ED50 was 3.7 mg/kg.

Question: And the ED50 (S. typhosa [2]; propionaldehyde derivative comparison, read-out: CD50 (the source's name))?
Answer: The ED50 was 3.8 mg/kg.

Question: And the ED50 (S. typhosa [2]; [16])?
Answer: The ED50 was 5.4 mg/kg.

Question: What about the ED50 (E. coli [3]; [15]) of the same compound?
Answer: The ED50 was 6.4 mg/kg.

Question: And the ED50 (E. coli [3]; [16])?
Answer: The ED50 was 6.4 mg/kg.

Question: What about the stability in solution (B. subtilis) of the same compound?
Answer: The stability in solution was “very short stability in parenteral solutions”.

Question: And the ED50 (S. schottmuelleri; po, Table 3(b), po, acetaldehyde derivative comparison, read-out: CD50 (the source's name))?
Answer: Its ED50 is 5.3 mg/kg.

Question: And the ED50 (S. schottmuelleri; po, benzaldehyde derivative comparison, read-out: CD50 (the source's name))?
Answer: Its ED50 is 5.5 mg/kg.

Question: And the ED50 (S. schottmuelleri; po, butyraldehyde derivative comparison, read-out: CD50 (the source's name))?
Answer: Its ED50 is 5.9 mg/kg.

Question: What about the ED50 (S. schottmuelleri; po, hexaldehyde derivative comparison, read-out: CD50 (the source's name)) of the same compound?
Answer: The ED50 was 4.4 mg/kg.

Question: And the ED50 (S. schottmuelleri; po, propionaldehyde derivative comparison, read-out: CD50 (the source's name))?
Answer: The ED50 was 5.7 mg/kg.

Question: What about the ED50 (S. schottmuelleri; po, read-out: CD50, Table 2, PO, mice) of the same compound?
Answer: The ED50 was 5.3 mg/kg.

Question: And the ED50 (S. schottmuelleri; sc, Table 3(b), sc, acetaldehyde derivative comparison, read-out: CD50 (the source's name))?
Answer: Its ED50 is 6.5 mg/kg.

Question: What about the ED50 (S. schottmuelleri; sc, benzaldehyde derivative comparison, read-out: CD50 (the source's name)) of the same compound?
Answer: The ED50 was 6.7 mg/kg.

Question: What about the ED50 (S. schottmuelleri; sc, butyraldehyde derivative comparison, read-out: CD50 (the source's name)) of the same compound?
Answer: Its ED50 is 2.3 mg/kg.

Question: What about the ED50 (S. schottmuelleri; sc, hexaldehyde derivative comparison, read-out: CD50 (the source's name)) of the same compound?
Answer: The ED50 was 1 mg/kg.

Question: And the ED50 (S. schottmuelleri; sc, propionaldehyde derivative comparison, read-out: CD50 (the source's name))?
Answer: Its ED50 is 6.1 mg/kg.

Question: And the ED50 (E. coli [4]; [6])?
Answer: The ED50 was 16 mg/kg.

Question: And the ED50 (E. coli [4]; [7])?
Answer: The ED50 was 15 mg/kg.

Question: And the ED50 (E. coli [4]; [8])?
Answer: The ED50 was 10 mg/kg.

Question: And the ED50 (E. coli [4]; [9])?
Answer: Its ED50 is 11 mg/kg.

Question: And the ED50 (E. coli [4]; [10])?
Answer: Its ED50 is 10 mg/kg.

Question: And the ED50 (E. coli [4]; [11])?
Answer: Its ED50 is 5.9 mg/kg.

Question: What about the ED50 (E. coli [4]; [12]) of the same compound?
Answer: The ED50 was 6 mg/kg.

Question: And the ED50 (E. coli [4]; [13])?
Answer: The ED50 was 2.5 mg/kg.

Question: And the ED50 (E. coli [4]; [14])?
Answer: Its ED50 is 3.4 mg/kg.

Question: And the ED50 (S. aureus; po, Table 2, PO, mice)?
Answer: The ED50 was 1.2 mg/kg.

Question: And the ED50 (S. aureus; [5])?
Answer: The ED50 was 1.2 mg/kg.

Question: And the ED50 (S. aureus; [6])?
Answer: Its ED50 is 4 mg/kg.

Question: What about the ED50 (S. aureus; [7]) of the same compound?
Answer: Its ED50 is 0.29 mg/kg.

Question: And the ED50 (S. aureus; [8])?
Answer: Its ED50 is 0.72 mg/kg.

Question: And the ED50 (S. aureus; [9])?
Answer: The ED50 was 0.41 mg/kg.

Question: What about the ED50 (S. aureus; [10]) of the same compound?
Answer: The ED50 was 2 mg/kg.

Question: And the ED50 (S. aureus; [11])?
Answer: The ED50 was 0.16 mg/kg.

Question: And the ED50 (S. aureus; [12])?
Answer: Its ED50 is 0.5 mg/kg.

Question: What about the ED50 (S. aureus; [13]) of the same compound?
Answer: The ED50 was 0.79 mg/kg.

Question: What about the ED50 (S. aureus; [14]) of the same compound?
Answer: Its ED50 is 0.47 mg/kg.
